# Test results published in article PMC6335420, “The cell cycle regulator GpsB functions as cytosolic adaptor for multiple cell wall enzymes” (Nature Communications, 2019).
# Read-outs that look alike come from different tables or passages of the source. Residues, ends and D or L forms follow the SMILES beside them. *: point of attachment. Fluorescein(5-Mal) = O=C1OC2(c3ccc(O)cc3Oc3cc(O)ccc32)c2ccc(N3C(=O)CC(*)C3=O)cc21; X1 = CN(C)c1ccc2c(-c3ccc(N4C(=O)CC(*)C4=O)cc3C(=O)[O-])c3ccc(=[N+](C)C)cc-3oc2c1
# B1: BsYpbE130-240^Ser132Cys: disulphide cross-linked dimeric form of BsYpbE130-240 (protein, UniProt P50731 130-240, looked up, variant S132C)
# chain: EDCKPKEQTAADKKQTAVAEKEDSPNKEEATAAAASSSQSTVQQQEQPAEPVQNVPNRVVKHTVQKKETLYRISMKYYKSRTGEEKIRAYNHLNGNDVYTGQVLDIPLMDE
# modifications: disulphide-linked dimer
# Key:
# LmGpsB1-73 = target: T1, LmGpsB1-73 (Listeria monocytogenes serovar 1/2a, UniProt Q8Y614); assay: Fluorescence polarisation binding to LmGpsB1-73; settings: FP
# T1 construct: made in house; host or cells: E. coli BL21(DE3)
# Description: (§1) 75 the BsGpsB5-64:BsPBP11-17 complex.
# BsGpsB1-68Lys32Glu = target: T2, BsGpsB1-68Lys32Glu (Bacillus subtilis, UniProt P0CI74, K32E); assay: Fluorescence polarisation binding to BsGpsB1-68Lys32Glu; settings: FP
# T2 construct: His6 (N, cleaved yes); made in house; host or cells: E. coli BL21(DE3)
# Description: as §1
# BsGpsB1-68Tyr25Phe = target: T3, BsGpsB1-68Tyr25Phe (Bacillus subtilis, UniProt P0CI74, Y25F); assay: Fluorescence polarisation binding to BsGpsB1-68Tyr25Phe; settings: FP, BsGpsB Tyr25Phe relative to wild-type BsGpsB1-68
# T3 construct: correspond to BsGpsB1-68^Asp31Ala and BsGpsB1-68^Tyr25Phe mutants, respectively; His6 (N, cleaved yes); made in house; host or cells: E. coli BL21(DE3)
# Description: as §1
# BsGpsB1-68Glu17Ala = target: T4, BsGpsB1-68Glu17Ala (Bacillus subtilis, UniProt P0CI74, E17A); assay: Fluorescence polarisation binding to BsGpsB1-68Glu17Ala; settings: FP, BsGpsB1-68Glu17Ala relative to wild-type BsGpsB1-68
# T4 construct: Glu17Ala, Asp31Ala and Asp35Ala mutations were introduced to the BsGpsB1-68 expression construct plasmid; His6 (N, cleaved yes); made in house; host or cells: E. coli BL21(DE3)
# Description: as §1
# BsGpsB1-68Asp35Ala = target: T5, BsGpsB1-68Asp35Ala (Bacillus subtilis, UniProt P0CI74, D35A); assay: Fluorescence polarisation binding to BsGpsB1-68Asp35Ala; settings: FP, BsGpsB1-68Asp35Ala relative to wild-type BsGpsB1-68
# T5 construct: Glu17Ala, Asp31Ala and Asp35Ala mutations were introduced to the BsGpsB1-68 expression construct plasmid; His6 (N, cleaved yes); made in house; host or cells: E. coli BL21(DE3)
# Description: as §1
# [1] = Circular dichroism of PBP peptides (helicity); format: physicochemical; settings: CD, 222 nm, 4 °C, 20 mM sodium phosphate pH 7.3, 25 μM peptide
# Procedure: CD spectra were recorded on a JASCO J-810 spectropolarimeter with a PTC-4235 Peltier temperature controller using 1 mm path length quartz cuvettes. For full wavelength scans a scan speed of 10 nm^−1min^−1 and a response time of 4 s were used, the final spectra were the average of at least four measurements. BsPBP1_1-32 CD spectra were recorded at 4 °C in a buffer of 20 mM sodium phosphate, pH 7.3 at a peptide concentration of 25 μM. Peptide helical contents were estimated from molar ellipticities at 222 nm using the equation helix = [θ]222 nm / (39,500(1–2.57/n))[78] where n is the number of residues in the peptide. LmPBPA1_1-15 CD spectra were analysed at 40 μM in 20 mM sodium phosphate buffer, pH 7.8, for samples containing 0, 40 and 60% trifluoroethanol (TFE). For samples containing 80% TFE, 5 mM sodium phosphate buffer, pH 7.8, was used. The CD spectra of BsGpsB1-68 proteins were measured at a concentration of 4.5 μM in a buffer of 20 mM sodium phosphate (pH 7.8) 150 mM NaCl. For thermal melt experiments, a response time of 8 s and scan rate of 1 °C^−1min^−1 were used. All thermal melts were reversible as CD spectra recorded before and after the melts in the wavelength range 200–240 nm could be superimposed.
# BsGpsB1-68Asp31Ala = target: T6, BsGpsB1-68Asp31Ala (Bacillus subtilis, UniProt P0CI74, D31A); assay: Fluorescence polarisation binding to BsGpsB1-68Asp31Ala; settings: FP, BsGpsB Asp31Ala relative to wild-type BsGpsB1-68
# T6 construct: Glu17Ala, Asp31Ala and Asp35Ala mutations were introduced to the BsGpsB1-68 expression construct plasmid; His6 (N, cleaved yes); made in house; host or cells: E. coli BL21(DE3)
# Description: as §1
# L. monocytogenes [2] = assay: L. monocytogenes fosfomycin susceptibility (filter disc); format: cell-based, Listeria monocytogenes EGD-e; settings: halo around filter disc, BHI agar, 37 °C; pbpA1 R8A,R12A and Q10P mutants; triplicate
# Procedure: Fosfomycin susceptibility was recorded using filter discs (Ø 6 mm) soaked with 10 µL of a 10 mg^−1mL^−1 fosfomycin solution. L. monocytogenes colonies, grown on BHI agar plates, were resuspended in BHI broth and used to swab-inoculate BHI agar plates. Filter discs soaked with fosfomycin were placed on top of the agar surface and the plates were incubated at 37 °C overnight. Diameter of growth inhibition zones was measured and corrected for the filter disc diameter. All experiments were performed three times and average values and standard deviations were calculated. Significance was determined using the t-test and differences were considered to be significant when P < 0.01.
# L. monocytogenes [3] = settings: 37 °C, vs wild-type L. monocytogenes; cited from earlier work
# BsGpsB1-68 [4] = target: T7, BsGpsB1-68 (Bacillus subtilis, UniProt P0CI74); settings: FP, compared with residue-16-labelled peptide; ref 3 (supplement); cited from earlier work
# T7 construct: His6 (N, cleaved yes); made in house; host or cells: E. coli BL21(DE3)
# BsGpsB1-68 [5] = target: T7, BsGpsB1-68; format: binding; settings: FP
# Description: as §1
# [6] = Peptidoglycan pulldown assay; format: binding, Bacillus subtilis; settings: 25 µg protein + 66 µg PG in 100 µL PBS, room temperature 30 min, SDS-PAGE
# Procedure: PG pulldown assays were carried out in PBS buffer. B. subtilis PG (SigmaAldrich) was prepared as a 10 mg^−1 mL^−1 stock solution in PBS containing 0.02% sodium azide. 25 µg of protein were added to a 100 µL sample containing 66 µg of PG and the mixture incubated with gentle agitation at room temperature for 30 min. The mixture was centrifuged at 16,000 × g for 7 min, the supernatant removed and the pellet resuspended in 1 mL of ice-cold PBS and immediately centrifuged for 2 min at 16,000 × g. The pellet was resuspended in 1 mL of the appropriate buffer and centrifuged for 2 min at 16,000 × g. Finally the pellet was boiled for 3 min in 60 μL SDS-PAGE loading buffer before analysis by SDS-PAGE; the SDS-PAGE loading buffer lacked reducing agents for YpbE130-240^Ser132Cys samples.
molecule,measurement,setting,value
CSCC[C@H](NC(=O)[C@H](CO)NC(=O)CN)C(=O)N[C@@H](C)C(=O)N[C@@H](CC(=O)O)C(=O)N[C@@H](CCCCN)C(=O)N1CCC[C@H]1C(=O)N[C@@H](CCC(N)=O)C(=O)N[C@H](C(=O)N[C@@H](CCCNC(=N)N)C(=O)N[C@@H](CO)C(=O)N[C@@H](CCC(N)=O)C(=O)N[C@@H](Cc1ccc(O)cc1)C(=O)N[C@@H](CCCNC(=N)N)C(=O)N[C@@H](CC(N)=O)C(=O)N[C@@H](CCCCN)C(=O)N[C@@H](CCC(N)=O)C(=O)N[C@@H](CO)C(=O)NCC(=O)NCC(=O)N[C@@H](CSC1CC(=O)N(c2ccc3c(c2)C(=O)OC32c3ccc(O)cc3Oc3cc(O)ccc32)C1=O)C(=O)N[C@@H](CCCCN)C(=O)O)[C@@H](C)O (some centres unmarked) [Fluorescein-LmPBPA11-20] (H-GSMADKPQTRSQYRNKQSGGC(Fluorescein(5-Mal))K-OH; N-terminus and C-terminus assumed),binding to LmGpsB1-73 (in words),LmGpsB1-73,affinity similar to that of BsPBPA1_1-32 for BsGpsB1-68
same,binding to BsGpsB1-68Lys32Glu (in words),BsGpsB1-68Lys32Glu,almost identical
CSCC[C@H](NC(=O)[C@H](CO)NC(=O)CN)C(=O)N[C@@H](C)C(=O)N[C@@H](CC(=O)O)C(=O)N[C@@H](CCC(N)=O)C(=O)N[C@@H](Cc1ccccc1)C(=O)N[C@@H](CC(N)=O)C(=O)N[C@@H](CO)C(=O)N[C@@H](CCCNC(=N)N)C(=O)N[C@@H](CCC(=O)O)C(=O)N[C@@H](C)C(=O)N[C@@H](CCCNC(=N)N)C(=O)N[C@@H](CCCNC(=N)N)C(=O)N[C@@H](CCCCN)C(=O)N[C@@H](C)C(=O)N[C@@H](CC(N)=O)C(=O)N[C@@H](CSC1CC(=O)N(c2ccc(-c3c4ccc(=[N+](C)C)cc-4oc4cc(N(C)C)ccc34)c(C(=O)[O-])c2)C1=O)C(=O)N[C@@H](CCCCN)C(=O)N[C@@H](CO)C(=O)N[C@@H](CO)C(=O)N1CCC[C@H]1C(=O)N[C@@H](CO)C(=O)N1CCC[C@H]1C(=O)N[C@@H](CCCCN)C(=O)N[C@@H](CCCCN)C(=O)NCC(=O)N[C@@H](CCCCN)C(=O)N[C@@H](CCCCN)C(=O)N[C@@H](CCCNC(=N)N)C(=O)N[C@@H](CCCCN)C(=O)N[C@@H](CCCCN)C(=O)NCC(=O)NCC(=O)O (some centres unmarked) [TAMRA-BsPBP11-32] (H-GSMADQFNSREARRKANC(X1)KSSPSPKKGKKRKKGG-OH),reduction in affinity on GpsB mutation,BsGpsB1-68Tyr25Phe,more than 8 fold
same,reduction in affinity on GpsB mutation,BsGpsB1-68Glu17Ala,more than 8 fold
same,reduction in affinity on GpsB mutation,BsGpsB1-68Asp35Ala,more than 8 fold
same,helical residues corresponding to helical content,[1],~ 5 residues
same,α-helical content,[1]; average of at least four measurements,14%
same,reduction in affinity on GpsB mutation,BsGpsB1-68Asp31Ala,more than 8 fold
C[C@@H]1O[C@@H]1P(=O)(O)O [fosfomycin],fosfomycin sensitivity,L. monocytogenes [2],"Effects on fosfomycin sensitivity were apparent in mutants carrying the pbpA1^Arg8Ala,Arg12Ala and pbpA1^Gln10Pro alleles but only when LmPBPA2, the LmPBPA1 paralogue, was also absent"
same,fosfomycin susceptibility of ΔgpsB mutants,L. monocytogenes [3],more susceptible
CSCC[C@H](NC(=O)[C@H](CO)NC(=O)CN)C(=O)N[C@@H](C)C(=O)N[C@@H](CC(=O)O)C(=O)N[C@@H](CCC(N)=O)C(=O)N[C@@H](Cc1ccccc1)C(=O)N[C@@H](CC(N)=O)C(=O)N[C@@H](CO)C(=O)N[C@@H](CCCNC(=N)N)C(=O)N[C@@H](CCC(=O)O)C(=O)N[C@@H](C)C(=O)N[C@@H](CCCNC(=N)N)C(=O)N[C@@H](CCCNC(=N)N)C(=O)N[C@@H](CCCCN)C(=O)N[C@@H](C)C(=O)N[C@@H](CC(N)=O)C(=O)N[C@@H](CO)C(=O)N[C@@H](CCCCN)C(=O)N[C@@H](CO)C(=O)N[C@@H](CO)C(=O)N1CCC[C@H]1C(=O)N[C@@H](CO)C(=O)N1CCC[C@H]1C(=O)N[C@@H](CCCCN)C(=O)N[C@@H](CCCCN)C(=O)NCC(=O)N[C@@H](CCCCN)C(=O)N[C@@H](CCCCN)C(=O)N[C@@H](CCCNC(=N)N)C(=O)N[C@@H](CCCCN)C(=O)N[C@@H](CCCCN)C(=O)N[C@@H](CSC1CC(=O)N(c2ccc3c(c2)C(=O)OC32c3ccc(O)cc3Oc3cc(O)ccc32)C1=O)C(=O)NCC(=O)O (some centres unmarked) [Fluorescein-BsPBP11-32] (H-GSMADQFNSREARRKANSKSSPSPKKGKKRKKC(Fluorescein(5-Mal))G-OH; N-terminus and C-terminus assumed),affinity of residue-31-labelled peptide (in words),BsGpsB1-68 [4],same affinity
same,binding to BsGpsB1-68 (in words),BsGpsB1-68 [5]; listed as BsPBP1_1-32 peptide labelled with fluorescein at position 31,the measured affinity was the same as if the fluorophore was at position 16
same,binding to BsGpsB1-68 (in words),BsGpsB1-68 [5]; listed as peptide labelled at the C-terminus with fluorescein,same affinity as a peptide labelled
B1,binding to peptidoglycan,[6],"enhanced considerably relative to the monomeric, cysteine-free version"
